Values quoted from earlier work, collected in US20210268046A1, “CANNABINOID & PROBIOTIC SUPPOSITORIES & METHODS OF USE” (HoneyHills TX, LLC, priority 2020, published 2021).

Conditions: for psychotic symptoms: acute paranoid schizophrenia

| SMILES | psychotic symptoms | side effects (compared with Amisuipride) |
| --- | --- | --- |
| CCN1CCCC1CNC(=O)c1cc(S(=O)(=O)CC)c(N)cc1OC (stereo not drawn) [Amisuipride] | significant decrease |  |
| C=C(C)[C@@H]1CCC(C)=C[C@H]1c1c(O)cc(CCCCC)cc1O [cannabidiol, Cannabidiol] | significant decrease | fewer side effects |
